Values after ≈ are worked out from the molar mass of the structure shown.
Experiments:
Experiment in all cases: in vitro antibacterial evaluation, MIC by broth dilution
Type in all cases: cell-based
Enterococcus sp. = conditions: broth dilution, 18 hours at 35° C.
Method in brief: (§1)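 Test organisms, which included recent clinical isolates resistant to methicillin, penicillin and/or vancomycin, were inoculated at 5×10^5 CFU/mL into Muller-Hinton II […] containing antibiotic at 64-0.06 μg/mL. Minimum inhibitory concentrations were then read as the lowest level inhibiting growth.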

Staphylococcus sp. = conditions: broth dilution, 18 hours at 35° C.
Method in brief: as §1

Streptococcus sp. = conditions: broth dilution, 18 hours at 35° C.
Method in brief: as §1

Escherichia coli = conditions: 18 hours at 35° C.

MIC Enterococcus avium (GC 4558) (Enterococcus sp.): 128 µg/mL (≈ 87.3 µM)
MIC Enterococcus faecalis (ATCC 29212) (Enterococcus sp.): >128 µg/mL
MIC Enterococcus faecalis (GC 2242) (Enterococcus sp.): >128 µg/mL
MIC Enterococcus faecalis (GC 2691) (Enterococcus sp.): >128 µg/mL
MIC Enterococcus faecalis (GC 3059) (Enterococcus sp.): >128 µg/mL
MIC Enterococcus faecalis (GC 4552) (Enterococcus sp.): >128 µg/mL
MIC Enterococcus faecalis (GC 4553) (Enterococcus sp.): 128 µg/mL (≈ 87.3 µM)
MIC Enterococcus faecalis (GC 4554) (Enterococcus sp.): >128 µg/mL
MIC Enterococcus faecalis (GC 6189) (Enterococcus sp.): >128 µg/mL
MIC Enterococcus faecium (GC 2243) (Enterococcus sp.): 128 µg/mL (≈ 87.3 µM)
MIC Enterococcus faecium (GC 4556) (Enterococcus sp.): >128 µg/mL
MIC Enterococcus faecium (GC 4557) (Enterococcus sp.): 32 µg/mL (≈ 21.8 µM)
MIC Enterococcus faecalis (ATCC 29212) (Enterococcus sp.; inoculum 5×10^5 CFU/mL, strain ATCC 29212): >128 µg/mL
MIC Enterococcus faecalis (GC 2242) (Enterococcus sp.; inoculum 5×10^5 CFU/mL, strain GC 2242): >128 µg/mL
MIC Enterococcus faecium (GC 2243) (Enterococcus sp.; inoculum 5×10^5 CFU/mL, strain GC 2243): 128 µg/mL (≈ 87.3 µM)
MIC Enterococcus faecalis (GC 2691) (Enterococcus sp.; inoculum 5×10^5 CFU/mL, strain GC 2691): >128 µg/mL
MIC Enterococcus faecalis (GC 3059) (Enterococcus sp.; inoculum 5×10^5 CFU/mL, strain GC 3059): >128 µg/mL
MIC Enterococcus faecalis (GC 4552) (Enterococcus sp.; inoculum 5×10^5 CFU/mL, strain GC 4552): >128 µg/mL
MIC Enterococcus faecalis (GC 4553) (Enterococcus sp.; inoculum 5×10^5 CFU/mL, strain GC 4553): 128 µg/mL (≈ 87.3 µM)
MIC Enterococcus faecalis (GC 4554) (Enterococcus sp.; inoculum 5×10^5 CFU/mL, strain GC 4554): >128 µg/mL
MIC Enterococcus faecium (GC 4556) (Enterococcus sp.; inoculum 5×10^5 CFU/mL, strain GC 4556): >128 µg/mL
MIC Enterococcus faecium (GC 4557) (Enterococcus sp.; inoculum 5×10^5 CFU/mL, strain GC 4557): 32 µg/mL (≈ 21.8 µM)
MIC Enterococcus avium (GC 4558) (Enterococcus sp.; inoculum 5×10^5 CFU/mL, strain GC 4558): 128 µg/mL (≈ 87.3 µM)
MIC Enterococcus faecalis (GC 6189) (Enterococcus sp.; inoculum 5×10^5 CFU/mL, strain GC 6189): >128 µg/mL
MIC Coagulase Negative Staphylococcus (GC 4547) (Staphylococcus sp.): 64 µg/mL (≈ 43.7 µM)
MIC Coagulase Negative Staphylococcus (GC 4548) (Staphylococcus sp.): 64 µg/mL (≈ 43.7 µM)
MIC Coagulase Negative Staphylococcus (GC 4549) (Staphylococcus sp.): 64 µg/mL (≈ 43.7 µM)
MIC Coagulase Negative Staphylococcus (GC 4551) (Staphylococcus sp.): 64 µg/mL (≈ 43.7 µM)
MIC Coagulase Negative Staphylococcus (GC 6257) (Staphylococcus sp.): 32 µg/mL (≈ 21.8 µM)
MIC Staphylococcus aureus (ATCC 29213) (Staphylococcus sp.): 128 µg/mL (≈ 87.3 µM)
MIC Staphylococcus aureus (GC 1131) (Staphylococcus sp.): 128 µg/mL (≈ 87.3 µM)
MIC Staphylococcus aureus (GC 3051) (Staphylococcus sp.): 128 µg/mL (≈ 87.3 µM)
MIC Staphylococcus aureus (GC 3053) (Staphylococcus sp.): 128 µg/mL (≈ 87.3 µM)
MIC Staphylococcus aureus (GC 4541) (Staphylococcus sp.): 64 µg/mL (≈ 43.7 µM)
MIC Staphylococcus aureus (GC 4542) (Staphylococcus sp.): >128 µg/mL
MIC Staphylococcus aureus (GC 4544) (Staphylococcus sp.): 128 µg/mL (≈ 87.3 µM)
MIC Staphylococcus aureus (GC 4545) (Staphylococcus sp.): 128 µg/mL (≈ 87.3 µM)
MIC Staphylococcus aureus-SMITH (GC 4543) (Staphylococcus sp.): 64 µg/mL (≈ 43.7 µM)
MIC Staphylococcus aureus (ATCC 29213) (Staphylococcus sp.; strain ATCC 29213): 128 µg/mL (≈ 87.3 µM)
MIC Staphylococcus aureus (GC 1131) (Staphylococcus sp.; strain GC 1131): 128 µg/mL (≈ 87.3 µM)
MIC Staphylococcus aureus (GC 3051) (Staphylococcus sp.; strain GC 3051): 128 µg/mL (≈ 87.3 µM)
MIC Staphylococcus aureus (GC 3053) (Staphylococcus sp.; strain GC 3053): 128 µg/mL (≈ 87.3 µM)
MIC Staphylococcus aureus (GC 4541) (Staphylococcus sp.; strain GC 4541): 64 µg/mL (≈ 43.7 µM)
MIC Staphylococcus aureus (GC 4542) (Staphylococcus sp.; strain GC 4542): >128 µg/mL
MIC Staphylococcus aureus-SMITH (GC 4543) (Staphylococcus sp.; strain GC 4543): 64 µg/mL (≈ 43.7 µM)
MIC Staphylococcus aureus (GC 4544) (Staphylococcus sp.; strain GC 4544): 128 µg/mL (≈ 87.3 µM)
MIC Staphylococcus aureus (GC 4545) (Staphylococcus sp.; strain GC 4545): 128 µg/mL (≈ 87.3 µM)
MIC Coagulase Negative Staphylococcus (GC 4547) (Staphylococcus sp.; strain GC 4547): 64 µg/mL (≈ 43.7 µM)
MIC Coagulase Negative Staphylococcus (GC 4548) (Staphylococcus sp.; strain GC 4548): 64 µg/mL (≈ 43.7 µM)
MIC Coagulase Negative Staphylococcus (GC 4549) (Staphylococcus sp.; strain GC 4549): 64 µg/mL (≈ 43.7 µM)
MIC Coagulase Negative Staphylococcus (GC 4551) (Staphylococcus sp.; strain GC 4551): 64 µg/mL (≈ 43.7 µM)
MIC Coagulase Negative Staphylococcus (GC 6257) (Staphylococcus sp.; strain GC 6257): 32 µg/mL (≈ 21.8 µM)
MIC Streptococcus agalactiae (GC 4564) (Streptococcus sp.): 32 µg/mL (≈ 21.8 µM)
MIC Streptococcus pneumoniae (ATCC 6301) (Streptococcus sp.): 32 µg/mL (≈ 21.8 µM)
MIC Streptococcus pneumoniae (GC 1894) (Streptococcus sp.): 16 µg/mL (≈ 10.9 µM)
MIC Streptococcus pneumoniae (GC 4565) (Streptococcus sp.): 32 µg/mL (≈ 21.8 µM)
MIC Streptococcus pyogenes (GC 4563) (Streptococcus sp.): 64 µg/mL (≈ 43.7 µM)
MIC Streptococcus pneumoniae (ATCC 6301) (Streptococcus sp.; inoculum 5×10^5 CFU/mL, strain ATCC 6301): 32 µg/mL (≈ 21.8 µM)
MIC Streptococcus pneumoniae (GC 1894) (Streptococcus sp.; inoculum 5×10^5 CFU/mL, strain GC 1894): 16 µg/mL (≈ 10.9 µM)
MIC Streptococcus pyogenes (GC 4563) (Streptococcus sp.; inoculum 5×10^5 CFU/mL, strain GC 4563): 64 µg/mL (≈ 43.7 µM)
MIC Streptococcus agalactiae (GC 4564) (Streptococcus sp.; inoculum 5×10^5 CFU/mL, strain GC 4564): 32 µg/mL (≈ 21.8 µM)
MIC Streptococcus pneumoniae (GC 4565) (Streptococcus sp.; inoculum 5×10^5 CFU/mL, strain GC 4565): 32 µg/mL (≈ 21.8 µM)
MIC Escherichia coli (ATCC 25922) (Escherichia coli): >128 µg/mL
MIC Escherichia coli (GC 4559) (Escherichia coli): >128 µg/mL
MIC Escherichia coli (GC 4560) (Escherichia coli): 32 µg/mL (≈ 21.8 µM)
SMILES: COc1ccc2cc(COC3C(OC4C(CO)OC(Oc5ccc(CC6NC(=O)C(C(C)c7ccccc7)NC(=O)CNC(=O)C(CO)NC(=O)C(C(O)C7CNC(=N)N7C7OC(CO)C(O)C(O)C7O)NC(=O)C(C(O)C7CNC(=N)N7)NC6=O)cc5)C(O)C4O)OC(CO)C(O)C3O)ccc2c1 (stereo not drawn) [Example 230c, Cyclo[glycyl-β-methylphenylalanyl-O-[4-O-[2-O-[(6-methoxy-2-naphthyl)methyl]hexopyranosyl]hexopyranosyl]tyrosyl-3-(2-iminoimidazolidin-4-yl)seryl-3-(3-hexopyranosyl-2-iminoimidazolidin-4-yl)serylseryl]]
MIC Staphylococcus haemolyticus (GC 4546) (Staphylococcus sp.): 64 µg/mL (≈ 43.7 µM)
MIC Staphylococcus haemolyticus (GC 4546) (Staphylococcus sp.; strain GC 4546): 64 µg/mL (≈ 43.7 µM)
